From PMC5028780, “Receptor and transporter binding and activity profiles of albiflorin extracted from Radix paeoniae Alba” (Scientific Reports, 2016)

How the values were obtained:
5-HT3 = 5-HT3 (Homo sapiens, UniProt P46098); assay: CNS receptor binding, 5-HT3; settings: HEK293 cell line
Procedure: (§1) Albiflorin (10 μM) was tested for numerous other potential binding targets by using standard receptor binding procedures. The tested targets included the following receptors: D1, D2, D3, D4, D5, 5-HT1A, 5-HT1B, 5-HT1D, 5-HT2a, 5-HT2C, 5-HT3, 5-HT5A, 5-HT6, 5-HT7, α1A, α1B, α2A, β1, M1, M2, M3, M4, M5, μ, κ, δ, A1, A2A, H1, H2, H3, H4.

hypothalamic NE levels = assay: In vivo microdialysis, extracellular NE; design: species or system rats
Procedure: The effect of albiflorin on extracellular monoamine levels in […] was determined using methods previously described. Microdialysis probes (CMA Microdialysis) with an active membrane surface of 2 mm were perfused with artificial cerebrospinal fluid (125 mM NaCl, 3 mM KCl, 0.75 mM MgSO4 and 1.2 mM CaCl2, pH 7.4) in situ for at least 18 h before experimentation. The microdialysis probe was then implanted via the guide cannula into the hypothalamus and perfused with artificial cerebral spinal fluid at a flow rate of 1 μL/min. A 3-h stabilisation period was allowed after probe implantation, and dialysate sampling was conducted according to previously described methods. […] All subsequent values were expressed as a percentage of the mean preinjection value (i.e., percentage of baseline). […] For a minimum of 3 h after albiflorin administration, dialysis samples were collected every 20 min and analysed to determine the levels of NE, 5-HT and DA. […] A 20-μL sample from the hypothalamus was analysed for 5-HT, NE and DA content using methods described previously. […] External standard curves were used to quantify the amounts of NE, 5-HT and DA in each sample, which was calculated using the area under the curve.
(§2) All data for inhibition curves were analysed by nonlinear regression using Prism software (GraphPad Software Inc., San Diego, CA) to determine IC50 values. […]

5-HT1B = 5-HT1B (Homo sapiens, UniProt P28222); assay: CNS receptor binding, 5-HT1B; settings: HEK293 cell line, [3H]-LSD(6)
Sequence of 5-HT1B (P28222 whole entry): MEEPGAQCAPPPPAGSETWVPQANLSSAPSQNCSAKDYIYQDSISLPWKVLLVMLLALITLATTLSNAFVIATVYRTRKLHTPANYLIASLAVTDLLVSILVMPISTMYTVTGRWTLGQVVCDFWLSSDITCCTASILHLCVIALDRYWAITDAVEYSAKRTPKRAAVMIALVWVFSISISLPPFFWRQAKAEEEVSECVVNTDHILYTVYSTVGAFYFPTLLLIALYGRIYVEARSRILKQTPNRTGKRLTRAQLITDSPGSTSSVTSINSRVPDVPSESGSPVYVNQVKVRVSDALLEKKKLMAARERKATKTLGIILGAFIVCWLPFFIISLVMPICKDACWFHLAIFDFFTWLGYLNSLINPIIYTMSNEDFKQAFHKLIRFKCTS
Procedure: as §1

D3 = molecular target: T1, D3 (Homo sapiens, UniProt P35462); assay: CNS receptor binding, dopamine D3; settings: CHO cell lines, [3H]-spiperone(1), read-out: IC50 values for albiflorin
T1 construct: expressed in transfected cells; host or cells: CHO cell lines
T1 sequence (P35462 whole entry): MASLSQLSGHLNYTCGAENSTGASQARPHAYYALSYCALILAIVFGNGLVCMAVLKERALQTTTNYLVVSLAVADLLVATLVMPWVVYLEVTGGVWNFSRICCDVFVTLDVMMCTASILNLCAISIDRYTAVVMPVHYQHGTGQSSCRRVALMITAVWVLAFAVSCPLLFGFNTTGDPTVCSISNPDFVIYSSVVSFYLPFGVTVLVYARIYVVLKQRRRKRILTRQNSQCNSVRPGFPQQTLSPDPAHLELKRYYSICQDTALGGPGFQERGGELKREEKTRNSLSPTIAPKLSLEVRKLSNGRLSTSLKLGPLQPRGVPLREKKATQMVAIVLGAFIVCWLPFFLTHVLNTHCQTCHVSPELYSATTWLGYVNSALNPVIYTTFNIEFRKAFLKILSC
Procedure: as §1

SERT = molecular target: T2, SERT (Rattus norvegicus, UniProt P31652); assay: Rat synaptosome uptake assay, [3H]-5-HT; assay type: biochemical; settings: Mid brain synaptosome
T2 construct: rat brain synaptosomes were prepared and treated with various concentrations of albiflorin; from tissue; host or cells: Sprague-Dawley rat brain synaptosomes (cerebral cortex in the text)
T2 sequence (P31652 whole entry): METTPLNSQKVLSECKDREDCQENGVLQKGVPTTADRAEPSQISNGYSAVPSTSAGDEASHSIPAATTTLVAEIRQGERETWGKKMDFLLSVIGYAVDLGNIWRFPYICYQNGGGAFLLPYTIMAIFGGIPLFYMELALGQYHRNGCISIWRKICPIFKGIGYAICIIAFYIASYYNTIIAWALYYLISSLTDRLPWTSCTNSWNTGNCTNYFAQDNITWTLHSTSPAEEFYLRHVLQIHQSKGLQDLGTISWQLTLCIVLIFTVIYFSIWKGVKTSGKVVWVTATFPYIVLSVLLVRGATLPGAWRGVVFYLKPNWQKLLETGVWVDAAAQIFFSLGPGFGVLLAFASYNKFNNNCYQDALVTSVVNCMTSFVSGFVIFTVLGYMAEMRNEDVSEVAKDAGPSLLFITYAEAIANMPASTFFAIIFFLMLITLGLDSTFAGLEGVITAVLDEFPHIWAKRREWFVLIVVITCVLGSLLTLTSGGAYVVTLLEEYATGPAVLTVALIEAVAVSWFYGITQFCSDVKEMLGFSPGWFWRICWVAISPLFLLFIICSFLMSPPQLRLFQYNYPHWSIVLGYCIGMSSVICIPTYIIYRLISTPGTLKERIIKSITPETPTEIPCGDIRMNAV
Procedure: Male Sprague–Dawley rats were killed by asphyxiation with carbon dioxide and cervical dislocation followed by decapitation. […] All dissected tissues were homogenised using a Teflon-glass tissue homogeniser in 4 mL of ice-cold sucrose (0.32 M). The homogenised tissue was centrifuged at 2,000× g for 10 min at 4 °C. […] Bio-Rad protein assay reagents (1:5 ratio) were used to analyse the protein concentration of the synaptosomal suspension. Uptake of 5-HT, NE and DA was determined as described previously. The compounds to be tested were dissolved in DMSO, further diluted with assay buffer, and tested over a 10-log unit concentration range in duplicate. Samples of 30–50 μg of synaptosomes (per sample in a total volume of 200 μL) were preincubated at 37 °C in a shaking water bath for 10 min. Vehicle or modifiers were then added for 10–20 min. Uptake was initiated by adding [^3H]-5-HT (20 nM), [^3H]-NE (20 nM), or [^3H]-DA (50 nM). After a 10-min incubation at 37 °C, uptake was terminated by filtration through (polyethyleneimine-coated) GF/B Whatman filters using a Brandel Cell Harvester (Brandel, Gaithersburg, MD).
as §2

hSERT = molecular target: T3, hSERT (Homo sapiens, UniProt P31645); assay type: binding
T3 construct: expressed in transfected cells
T3 sequence (P31645 whole entry): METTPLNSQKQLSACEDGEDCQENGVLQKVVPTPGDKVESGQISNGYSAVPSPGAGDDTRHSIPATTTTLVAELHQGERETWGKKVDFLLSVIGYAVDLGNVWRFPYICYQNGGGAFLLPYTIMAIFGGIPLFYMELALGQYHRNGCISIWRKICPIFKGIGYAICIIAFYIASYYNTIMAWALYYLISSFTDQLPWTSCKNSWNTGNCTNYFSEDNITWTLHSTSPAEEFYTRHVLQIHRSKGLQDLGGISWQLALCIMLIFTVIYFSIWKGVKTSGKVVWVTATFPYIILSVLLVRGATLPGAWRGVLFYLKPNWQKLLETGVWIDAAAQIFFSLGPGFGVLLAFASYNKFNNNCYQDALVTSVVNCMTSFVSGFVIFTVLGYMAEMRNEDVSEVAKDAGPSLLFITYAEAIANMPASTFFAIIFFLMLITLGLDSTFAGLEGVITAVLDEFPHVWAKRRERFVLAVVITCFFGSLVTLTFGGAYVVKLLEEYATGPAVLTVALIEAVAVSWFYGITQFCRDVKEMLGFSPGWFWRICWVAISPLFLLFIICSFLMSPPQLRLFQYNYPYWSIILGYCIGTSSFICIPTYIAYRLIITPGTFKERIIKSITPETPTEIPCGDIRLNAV
Procedure: Membranes were prepared from HEK293 cells stably expressing hSERT, hNET, or hDAT as described previously. Briefly, [^3H]-citalopram (1 nM), [^3H]-nisoxetine (2 nM), or [^3H]-WIN35,428 (2 nM) was used to label human 5-HT, NE, or DA transporters, respectively.
All data for inhibition curves were analysed by nonlinear regression using Prism software (GraphPad Software Inc., San Diego, CA) to determine IC50 values. For the microdialysis experiments, two-way repeated-measures ANOVA followed by Tukey’s test was used to compare the percentage increase over baseline between groups, time and treatment as independent factors, and time as the repeated factor.

M4 = M4 (Homo sapiens, UniProt P08173); assay: CNS receptor binding, muscarinic M4; settings: CHO cell line, [3H]-NMS(1)
Sequence of M4 (P08173 whole entry): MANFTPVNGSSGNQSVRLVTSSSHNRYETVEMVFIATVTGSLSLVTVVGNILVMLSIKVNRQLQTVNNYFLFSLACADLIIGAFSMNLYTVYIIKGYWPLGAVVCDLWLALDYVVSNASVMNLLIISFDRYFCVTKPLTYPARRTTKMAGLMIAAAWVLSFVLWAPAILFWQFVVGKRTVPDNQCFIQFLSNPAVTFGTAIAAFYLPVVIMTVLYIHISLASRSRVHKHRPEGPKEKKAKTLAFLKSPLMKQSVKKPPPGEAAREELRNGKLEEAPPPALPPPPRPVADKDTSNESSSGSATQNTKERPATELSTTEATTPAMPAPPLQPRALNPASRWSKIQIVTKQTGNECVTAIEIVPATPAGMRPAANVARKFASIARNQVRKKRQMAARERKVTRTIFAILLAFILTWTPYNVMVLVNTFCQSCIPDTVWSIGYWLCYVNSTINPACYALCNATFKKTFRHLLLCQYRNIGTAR
Procedure: as §1

A2A = A2A (Homo sapiens, UniProt P29274); assay: CNS receptor binding, adenosine A2A; settings: HEK293 cell line, [3H]-CGS21680(10), read-out: IC50 values for albiflorin
Procedure: as §1

α1B = α1B (Homo sapiens, UniProt P35368); assay: CNS receptor binding, NE receptor α1B; settings: HEK293 cell line, [3H]-parzosin(1)
Sequence of α1B (P35368 whole entry): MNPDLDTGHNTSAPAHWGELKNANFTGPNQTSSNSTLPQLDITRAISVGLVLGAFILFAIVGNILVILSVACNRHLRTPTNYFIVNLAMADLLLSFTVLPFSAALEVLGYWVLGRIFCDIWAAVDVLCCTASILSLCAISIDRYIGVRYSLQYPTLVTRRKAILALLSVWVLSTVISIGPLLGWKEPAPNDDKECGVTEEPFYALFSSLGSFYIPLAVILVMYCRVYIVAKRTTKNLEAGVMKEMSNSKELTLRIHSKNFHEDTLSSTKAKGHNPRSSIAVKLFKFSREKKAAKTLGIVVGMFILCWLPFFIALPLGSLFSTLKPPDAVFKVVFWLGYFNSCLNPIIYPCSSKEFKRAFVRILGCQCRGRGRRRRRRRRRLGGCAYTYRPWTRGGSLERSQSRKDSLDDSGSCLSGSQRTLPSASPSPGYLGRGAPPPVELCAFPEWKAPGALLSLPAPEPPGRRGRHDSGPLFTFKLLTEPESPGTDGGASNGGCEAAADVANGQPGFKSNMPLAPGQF
Procedure: as §1

H1 = H1 (Homo sapiens, UniProt P35367); assay: CNS receptor binding, histamine H1; settings: CHO cell line, [3H]-pyrilamine(2)
Sequence of H1 (P35367 whole entry): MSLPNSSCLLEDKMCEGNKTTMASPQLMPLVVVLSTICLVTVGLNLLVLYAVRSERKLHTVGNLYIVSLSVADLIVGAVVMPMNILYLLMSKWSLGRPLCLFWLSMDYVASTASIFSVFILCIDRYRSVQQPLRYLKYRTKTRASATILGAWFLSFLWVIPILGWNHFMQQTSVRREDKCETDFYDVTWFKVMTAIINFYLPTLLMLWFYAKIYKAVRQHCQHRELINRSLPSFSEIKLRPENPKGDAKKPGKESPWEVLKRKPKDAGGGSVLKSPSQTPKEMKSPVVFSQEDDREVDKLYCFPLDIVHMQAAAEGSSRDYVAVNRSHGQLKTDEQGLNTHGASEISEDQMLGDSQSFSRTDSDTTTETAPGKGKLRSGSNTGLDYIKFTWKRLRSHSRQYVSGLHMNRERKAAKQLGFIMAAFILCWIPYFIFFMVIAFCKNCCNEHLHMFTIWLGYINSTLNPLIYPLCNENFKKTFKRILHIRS
Procedure: as §1

H3 = H3 (Homo sapiens, UniProt Q9Y5N1); assay: CNS receptor binding, histamine H3; settings: CHO cell line, [3H]-hestamine(1)
Sequence of H3 (Q9Y5N1 whole entry): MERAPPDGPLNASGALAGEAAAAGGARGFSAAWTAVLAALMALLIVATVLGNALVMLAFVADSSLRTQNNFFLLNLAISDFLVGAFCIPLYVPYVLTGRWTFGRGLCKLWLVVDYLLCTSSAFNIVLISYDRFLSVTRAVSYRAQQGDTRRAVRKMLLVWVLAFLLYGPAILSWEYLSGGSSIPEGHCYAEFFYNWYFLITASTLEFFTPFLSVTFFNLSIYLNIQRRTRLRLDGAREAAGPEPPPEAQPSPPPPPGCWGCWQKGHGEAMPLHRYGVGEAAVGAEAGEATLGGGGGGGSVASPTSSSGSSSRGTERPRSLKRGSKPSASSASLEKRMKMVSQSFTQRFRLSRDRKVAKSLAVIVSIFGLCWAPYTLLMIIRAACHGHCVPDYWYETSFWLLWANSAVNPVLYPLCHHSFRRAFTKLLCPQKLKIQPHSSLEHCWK
Procedure: as §1

5-HT1A = 5-HT1A (Homo sapiens, UniProt P08908); assay: CNS receptor binding, 5-HT1A; settings: HEK293 cell line, [3H]-8-OH-DPAT(2)
Sequence of 5-HT1A (P08908 whole entry): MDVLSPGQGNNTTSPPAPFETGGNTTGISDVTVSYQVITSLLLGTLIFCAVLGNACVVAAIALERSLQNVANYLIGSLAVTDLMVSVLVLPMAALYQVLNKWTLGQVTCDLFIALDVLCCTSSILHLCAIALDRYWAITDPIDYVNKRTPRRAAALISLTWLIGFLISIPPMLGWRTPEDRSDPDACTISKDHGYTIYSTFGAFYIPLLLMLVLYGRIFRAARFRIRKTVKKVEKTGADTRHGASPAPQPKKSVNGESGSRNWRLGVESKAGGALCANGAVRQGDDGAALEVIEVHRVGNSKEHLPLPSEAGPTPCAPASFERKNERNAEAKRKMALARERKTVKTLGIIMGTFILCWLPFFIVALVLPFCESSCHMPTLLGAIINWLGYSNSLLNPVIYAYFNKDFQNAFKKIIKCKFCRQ
Procedure: as §1

[1] = read-out: IC50 values for albiflorin

Sequence of 5-HT3 (P46098 24-478): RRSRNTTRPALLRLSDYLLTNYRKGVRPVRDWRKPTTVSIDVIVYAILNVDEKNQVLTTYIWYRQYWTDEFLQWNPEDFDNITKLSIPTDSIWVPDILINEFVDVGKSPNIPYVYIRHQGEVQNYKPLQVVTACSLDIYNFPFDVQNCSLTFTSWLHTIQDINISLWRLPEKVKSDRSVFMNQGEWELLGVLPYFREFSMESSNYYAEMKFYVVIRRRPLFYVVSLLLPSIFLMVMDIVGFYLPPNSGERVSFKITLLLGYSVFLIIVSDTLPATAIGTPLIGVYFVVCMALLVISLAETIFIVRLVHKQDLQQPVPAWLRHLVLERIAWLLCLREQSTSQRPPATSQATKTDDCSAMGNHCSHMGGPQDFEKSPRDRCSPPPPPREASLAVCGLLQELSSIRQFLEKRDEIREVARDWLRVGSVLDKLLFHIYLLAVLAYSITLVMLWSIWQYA

With `C[C@]12C[C@@H](O)[C@@H]3C[C@@]1(O[C@@H]1O[C@H](CO)[C@@H](O)[C@H](O)[C@H]1O)[C@@]3(COC(=O)c1ccccc1)C(=O)O2` [albiflorin, Albiflorin] the “% Inhibition of binding at 10 μM albiflorin” value (“% Inhibition of binding” below) (5-HT3; [3H]-BRL3694) was 17.38%, the IC50 (5-HT3; [3H]-BRL3694, read-out: IC50 values for albiflorin) was greater than 10 µM and the “effect on hypothalamic NE levels” value (hypothalamic NE levels; acute oral administration, 3.5, 7.0, 14.0 mg/kg, freely moving rats) was “dose- and time-dependent increase”. For the same compound, the “time of peak NE increase after administration” value (hypothalamic NE levels; oral, rats, microdialysis) was 1 h, the “% Inhibition of binding” value (5-HT1B) was 16.60% and the IC50 (5-HT1B; [1]) was greater than 10 µM. The IC50 (D3) was 3.66 ± 0.212 µM, the IC50 (SERT) was 0.00304 ± 0.00084 µM and the Ki (hSERT; Human, [3H]-citalopram, HEK293 cell line, read-out: Ki values, SERT binding) was 0.00645 ± 0.00048 µM. For the same compound, the “affinity relative to fluoxetine in human SERT binding assay” value (hSERT; albiflorin vs fluoxetine) was 17 fold, the “% Inhibition of binding” value (M4) was 15.33% and the IC50 (M4; [1]) was greater than 10 µM. The IC50 (A2A) was greater than 10 µM, the “% Inhibition of binding” value (α1B) was 12.33% and the IC50 (α1B; [1]) was greater than 10 µM. The “% Inhibition of binding” value (H1) was 6.33%, the IC50 (H1; [1]) was greater than 10 µM and the “% Inhibition of binding” value (H3) was 12.33%. The IC50 (H3; [1]) was greater than 10 µM, the “% Inhibition of binding” value (5-HT1A) was 69.60% and the IC50 (5-HT1A; [1]) was 4 ± 0.662 µM.
